The experiment has as its target T1, MELK (Homo sapiens, UniProt Q14680).
T1 construct: purchased Thermo Fisher Scientific (Life Technologies) SelectScreen
Kind of experiment: SelectScreen Z'LYTE. In kind it is biochemical. Put shortly: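 NU5455 was profiled across the SelectScreen Broad panel of kinase activity and binding assays. Z'LYTE reactions such as CSF1R ran at apparent Km ATP, while the Adapta CAMK1 assay used ATP listed as 10. Values are given as percent.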

These results are taken from publication PMC6934184, “Selective DNA-PKcs inhibition extends the therapeutic index of localized radiotherapy and chemotherapy” (The Journal of Clinical Investigation, 2019).

T1 sequence (Q14680 whole entry): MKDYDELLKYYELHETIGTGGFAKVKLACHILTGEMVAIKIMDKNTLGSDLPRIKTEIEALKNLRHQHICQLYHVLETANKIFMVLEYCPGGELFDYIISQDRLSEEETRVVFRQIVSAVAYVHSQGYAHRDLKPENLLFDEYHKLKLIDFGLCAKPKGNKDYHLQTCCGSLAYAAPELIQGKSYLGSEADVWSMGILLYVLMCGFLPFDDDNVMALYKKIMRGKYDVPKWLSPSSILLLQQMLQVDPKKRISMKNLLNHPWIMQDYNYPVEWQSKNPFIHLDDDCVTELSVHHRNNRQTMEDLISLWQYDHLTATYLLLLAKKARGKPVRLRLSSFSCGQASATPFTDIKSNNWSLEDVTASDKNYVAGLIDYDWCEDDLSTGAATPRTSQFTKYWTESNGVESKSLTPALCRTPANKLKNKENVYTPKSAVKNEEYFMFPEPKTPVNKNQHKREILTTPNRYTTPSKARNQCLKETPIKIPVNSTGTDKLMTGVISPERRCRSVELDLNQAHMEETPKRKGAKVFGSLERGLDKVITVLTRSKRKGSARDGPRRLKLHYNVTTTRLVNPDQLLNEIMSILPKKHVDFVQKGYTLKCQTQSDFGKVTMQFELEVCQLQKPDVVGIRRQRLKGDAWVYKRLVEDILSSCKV

What is called inhibition is the drop in the measured response relative to a control, in per cent. Take `CN(C(=O)CN1CCOCC1)c1ccc2sc3c(-c4cccc5c(=O)cc(N6CC7CCC(C6)O7)oc45)cccc3c2c1` [NU5455]: the inhibition at 1 µM was -11.8%.
